Columns and labels:
Canis familiaris [1] = assay: Total electrolytic excretion of potassium in urine of dogs after intravenous administration of 11.9 uM/Kg of drug; assay type: ADME, organism-based, Canis lupus familiaris; conditions: dog, in vivo
Rattus norvegicus [2] = assay: Total electrolytic excretion of sodium in urine of rats after peroral administration of 239 uM/Kg of drug; assay type: ADME, organism-based; conditions: in vivo, po
Rattus norvegicus [3] = assay: Total electrolytic excretion of potassium in urine of rats after peroral administration of 71.6 uM/Kg of drug; assay type: ADME, organism-based; conditions: in vivo, po
Rattus norvegicus [4] = assay: Total electrolytic excretion of chlorine in urine of rats after peroral administration of 23.9 uM/Kg of drug; assay type: ADME, organism-based; conditions: in vivo, po
Rattus norvegicus [5] = assay: Total electrolytic excretion of chlorine in urine of rats after peroral administration of 239 uM/Kg of drug; assay type: ADME, organism-based; conditions: in vivo, po
Canis familiaris [6] = assay: Total electrolytic excretion of chlorine in urine of dogs after intravenous administration of 11.9 uM/Kg of drug; assay type: ADME, organism-based, Canis lupus familiaris; conditions: dog, in vivo
Canis familiaris [7] = assay: Total electrolytic excretion of sodium in urine of dogs after intravenous administration of 11.9 uM/Kg of drug; assay type: ADME, organism-based, Canis lupus familiaris; conditions: dog, in vivo
Rattus norvegicus [8] = assay: Total electrolytic excretion of potassium in urine of rats after peroral administration of 23.9 uM/Kg of drug; assay type: ADME, organism-based; conditions: in vivo, po
Rattus norvegicus [9] = assay: Total electrolytic excretion of potassium in urine of rats after peroral administration of 239 uM/Kg of drug; assay type: ADME, organism-based; conditions: in vivo, po
Rattus norvegicus [10] = assay: Total electrolytic excretion of chlorine in urine of rats after peroral administration of 71.6 uM/Kg of drug; assay type: ADME, organism-based; conditions: in vivo, po
Rattus norvegicus [11] = assay: Tested for the diuretic activity by measuring the urinary volume after peroral administering 71.6 uM/Kg of drug in rats; assay type: ADME, organism-based, Urine; conditions: in vivo, po
Rattus norvegicus [12] = assay: Total electrolytic excretion of sodium in urine of rats after peroral administration of 71.6 uM/Kg of drug; assay type: ADME, organism-based; conditions: in vivo, po
Rattus norvegicus [13] = assay: Tested for the diuretic activity by measuring the urinary volume after peroral administering 23.9 uM/Kg of drug in rats; assay type: ADME, organism-based, Urine; conditions: in vivo, po
Rattus norvegicus [14] = assay: Tested for the diuretic activity by measuring the urinary volume after peroral administering 239 uM/Kg of drug in rats; assay type: ADME, organism-based, Urine; conditions: in vivo, po
Canis familiaris [15] = assay: Tested for the diuretic activity by measuring the urinary volume after intravenous administering 11.9 uM/Kg of drug in dogs; assay type: ADME, organism-based, Canis lupus familiaris, Urine; conditions: dog, in vivo
Rattus norvegicus [16] = assay: Total electrolytic excretion of sodium in urine of rats after peroral administration of 23.9 uM/Kg of drug; assay type: ADME, organism-based; conditions: in vivo, po
Rattus norvegicus [17] = assay: Ratio of Total electrolytic excretion of sodium and potassium in urine of rats after peroral administration of 23.9 uM/Kg of drug; assay type: ADME, organism-based; conditions: in vivo, po
Rattus norvegicus [18] = assay: Ratio of Total electrolytic excretion of sodium and potassium in urine of rats after peroral administration of 239 uM/Kg of drug; assay type: ADME, organism-based; conditions: in vivo, po
Rattus norvegicus [19] = assay: Ratio of Total electrolytic excretion of sodium and potassium in urine of rats after intravenous administration of 11.9 uM/Kg of drug; assay type: ADME, organism-based; conditions: in vivo
Rattus norvegicus [20] = assay: Ratio of Total electrolytic excretion of sodium and potassium in urine of rats after peroral administration of 71.6 uM/Kg of drug; assay type: ADME, organism-based; conditions: in vivo, po
Rattus norvegicus [21] = assay: Total electrolytic excretion of chlorine in urine of rats after peroral administration of 83.8 uM/Kg of drug; assay type: ADME, organism-based; conditions: in vivo, po
Rattus norvegicus [22] = assay: Total electrolytic excretion of chlorine in urine of rats after peroral administration of 27.9 uM/Kg of drug; assay type: ADME, organism-based; conditions: in vivo, po
Rattus norvegicus [23] = assay: Total electrolytic excretion of chlorine in urine of rats after peroral administration of 279 uM/Kg of drug; assay type: ADME, organism-based; conditions: in vivo, po
Rattus norvegicus [24] = assay: Total electrolytic excretion of potassium in urine of rats after peroral administration of 27.9 uM/Kg of drug; assay type: ADME, organism-based; conditions: in vivo, po
Rattus norvegicus [25] = assay: Total electrolytic excretion of potassium in urine of rats after peroral administration of 83.8 uM/Kg of drug; assay type: ADME, organism-based; conditions: in vivo, po
Rattus norvegicus [26] = assay: Total electrolytic excretion of potassium in urine of rats after peroral administration of 279 uM/Kg of drug; assay type: ADME, organism-based; conditions: in vivo, po
Rattus norvegicus [27] = assay: Tested for the diuretic activity by measuring the urinary volume after peroral administering 83.8 uM/Kg of drug in rats; assay type: ADME, organism-based, Urine; conditions: in vivo, po
Rattus norvegicus [28] = assay: Total electrolytic excretion of sodium in urine of rats after peroral administration of 27.9 uM/Kg of drug; assay type: ADME, organism-based; conditions: in vivo, po
Rattus norvegicus [29] = assay: Total electrolytic excretion of sodium in urine of rats after peroral administration of 279 uM/Kg of drug; assay type: ADME, organism-based; conditions: in vivo, po
Rattus norvegicus [30] = assay: Total electrolytic excretion of sodium in urine of rats after peroral administration of 83.8 uM/Kg of drug; assay type: ADME, organism-based; conditions: in vivo, po
Rattus norvegicus [31] = assay: Tested for the diuretic activity by measuring the urinary volume after peroral administering 27.9 uM/Kg of drug in rats; assay type: ADME, organism-based, Urine; conditions: in vivo, po
Rattus norvegicus [32] = assay: Tested for the diuretic activity by measuring the urinary volume after peroral administering 279 uM/Kg of drug in rats; assay type: ADME, organism-based, Urine; conditions: in vivo, po
Rattus norvegicus [33] = assay: Ratio of Total electrolytic excretion of sodium and potassium in urine of rats after peroral administration of 279 uM/Kg of drug; assay type: ADME, organism-based; conditions: in vivo, po
Rattus norvegicus [34] = assay: Ratio of Total electrolytic excretion of sodium and potassium in urine of rats after peroral administration of 83.8 uM/Kg of drug; assay type: ADME, organism-based; conditions: in vivo, po
Rattus norvegicus [35] = assay: Ratio of Total electrolytic excretion of sodium and potassium in urine of rats after peroral administration of 27.9 uM/Kg of drug; assay type: ADME, organism-based; conditions: in vivo, po
Rattus norvegicus [36] = assay: Total electrolytic excretion of chlorine in urine of rats after peroral administration of 26.5 uM/Kg of drug; assay type: ADME, organism-based; conditions: in vivo, po
Rattus norvegicus [37] = assay: Total electrolytic excretion of chlorine in urine of rats after peroral administration of 265 uM/Kg of drug; assay type: ADME, organism-based; conditions: in vivo, po
Rattus norvegicus [38] = assay: Total electrolytic excretion of chlorine in urine of rats after intravenous administration of 7.94 uM/Kg of drug; assay type: ADME, organism-based; conditions: in vivo
Rattus norvegicus [39] = assay: Total electrolytic excretion of sodium in urine of rats after intravenous administration of 7.94 uM/Kg of drug; assay type: ADME, organism-based; conditions: in vivo
Rattus norvegicus [40] = assay: Total electrolytic excretion of chlorine in urine of rats after peroral administration of 79.4 uM/Kg of drug; assay type: ADME, organism-based; conditions: in vivo, po
Rattus norvegicus [41] = assay: Total electrolytic excretion of potassium in urine of rats after peroral administration of 7.94 uM/Kg of drug; assay type: ADME, organism-based; conditions: in vivo, po
Rattus norvegicus [42] = assay: Total electrolytic excretion of potassium in urine of rats after peroral administration of 79.4 uM/Kg of drug; assay type: ADME, organism-based; conditions: in vivo, po
Rattus norvegicus [43] = assay: Tested for the diuretic activity by measuring the urinary volume after peroral administering 79.4 uM/Kg of drug in rats; assay type: ADME, organism-based, Urine; conditions: in vivo, po
Rattus norvegicus [44] = assay: Total electrolytic excretion of sodium in urine of rats after peroral administration of 26.5 uM/Kg of drug; assay type: ADME, organism-based; conditions: in vivo, po
Rattus norvegicus [45] = assay: Total electrolytic excretion of sodium in urine of rats after peroral administration of 265 uM/Kg of drug; assay type: ADME, organism-based; conditions: in vivo, po
Rattus norvegicus [46] = assay: Total electrolytic excretion of sodium in urine of rats after peroral administration of 79.4 uM/Kg of drug; assay type: ADME, organism-based; conditions: in vivo, po
Rattus norvegicus [47] = assay: Tested for the diuretic activity by measuring the urinary volume after peroral administering 26.5 uM/Kg of drug in rats; assay type: ADME, organism-based, Urine; conditions: in vivo, po
Rattus norvegicus [48] = assay: Tested for the diuretic activity by measuring the urinary volume after peroral administering 265 uM/Kg of drug in rats; assay type: ADME, organism-based, Urine; conditions: in vivo, po
Rattus norvegicus [49] = assay: Total electrolytic excretion of potassium in urine of rats after peroral administration of 265 uM/Kg of drug; assay type: ADME, organism-based; conditions: in vivo, po
Rattus norvegicus [50] = assay: Ratio of Total electrolytic excretion of sodium and potassium in urine of rats after peroral administration of 26.5 uM/Kg of drug; assay type: ADME, organism-based; conditions: in vivo, po
Rattus norvegicus [51] = assay: Ratio of Total electrolytic excretion of sodium and potassium in urine of rats after peroral administration of 265 uM/Kg of drug; assay type: ADME, organism-based; conditions: in vivo, po
Rattus norvegicus [52] = assay: Ratio of Total electrolytic excretion of sodium and potassium in urine of rats after intravenous administration of 7.94 uM/Kg of drug; assay type: ADME, organism-based; conditions: in vivo
Rattus norvegicus [53] = assay: Ratio of Total electrolytic excretion of sodium and potassium in urine of rats after peroral administration of 79.4 uM/Kg of drug; assay type: ADME, organism-based; conditions: in vivo, po
Rattus norvegicus [54] = assay: Total electrolytic excretion of potassium in urine of rats after peroral administration of 26.5 uM/Kg of drug; assay type: ADME, organism-based; conditions: in vivo, po

For `Clc1ccc(N/C(=N/C2CCCCC2)N2CCOCC2)cc1Cl`, the “Excretion K+” value (Canis familiaris [1]) was 1.1 m equiv, the “Excretion Na+” value (Rattus norvegicus [2]) was 1.92 m equiv and the “Excretion K+” value (Rattus norvegicus [3]) was 0.32 m equiv. For the same compound, the “Excretion Cl-” value (Rattus norvegicus [4]) was 1.17 m equiv, the “Excretion Cl-” value (Rattus norvegicus [5]) was 1.69 m equiv and the “Excretion Cl-” value (Canis familiaris [6]) was 5.7 m equiv. For the same compound, the “Excretion Na+” value (Canis familiaris [7]) was 8.5 m equiv, the “Excretion K+” value (Rattus norvegicus [8]) was 0.27 m equiv and the “Excretion K+” value (Rattus norvegicus [9]) was 0.33 m equiv. The “Excretion Cl-” value (Rattus norvegicus [10]) was 1.45 m equiv, the V (Rattus norvegicus [11]) was 10.6 mL and the “Excretion Na+” value (Rattus norvegicus [12]) was 1.41 m equiv. For the same compound, the V (Rattus norvegicus [13]) was 7.4 mL, the V (Rattus norvegicus [14]) was 13.2 mL and the V (Canis familiaris [15]) was 57 mL. The “Excretion Na+” value (Rattus norvegicus [16]) was 1.1 m equiv, the Ratio (Rattus norvegicus [17]) was 4.1 [Na+]/[K+] and the Ratio (Rattus norvegicus [18]) was 5.8 [Na+]/[K+]. For the same compound, the Ratio (Rattus norvegicus [19]) was 7.4 [Na+]/[K+] and the Ratio (Rattus norvegicus [20]) was 4.4 [Na+]/[K+].

For `C1CCCC(/N=C(/NC2CCCCCC2)N2CCOCC2)CC1`, the “Excretion Cl-” value (Rattus norvegicus [21]) was 1.63 m equiv, the “Excretion Cl-” value (Rattus norvegicus [22]) was 1.37 m equiv and the “Excretion Cl-” value (Rattus norvegicus [23]) was 1.66 m equiv. For the same compound, the “Excretion K+” value (Rattus norvegicus [24]) was 0.32 m equiv, the “Excretion K+” value (Rattus norvegicus [25]) was 0.31 m equiv and the “Excretion K+” value (Rattus norvegicus [26]) was 0.28 m equiv. The V (Rattus norvegicus [27]) was 9.7 mL, the “Excretion Na+” value (Rattus norvegicus [28]) was 1.21 m equiv and the “Excretion Na+” value (Rattus norvegicus [29]) was 1.54 m equiv. The “Excretion Na+” value (Rattus norvegicus [30]) was 1.53 m equiv, the V (Rattus norvegicus [31]) was 8.4 mL and the V (Rattus norvegicus [32]) was 9.1 mL. It also gave a Ratio (Rattus norvegicus [33]) of 5.6, a Ratio (Rattus norvegicus [34]) of 5 and a Ratio (Rattus norvegicus [35]) of 3.8.

For `Cc1cccc(C)c1N/C(=N/C1CCCCC1)N1CCOCC1`, the “Excretion Cl-” value (Rattus norvegicus [36]) was 1.4 m equiv, the “Excretion Cl-” value (Rattus norvegicus [37]) was 1.86 m equiv and the “Excretion Cl-” value (Rattus norvegicus [38]) was 6.5 m equiv. For the same compound, the “Excretion Na+” value (Rattus norvegicus [39]) was 7.8 m equiv, the “Excretion Cl-” value (Rattus norvegicus [40]) was 1.7 m equiv and the “Excretion K+” value (Rattus norvegicus [41]) was 1.3 m equiv. For the same compound, the “Excretion K+” value (Rattus norvegicus [42]) was 0.35 m equiv, the V (Rattus norvegicus [43]) was 12.3 mL and the “Excretion Na+” value (Rattus norvegicus [44]) was 1.44 m equiv. For the same compound, the “Excretion Na+” value (Rattus norvegicus [45]) was 2.05 m equiv, the “Excretion Na+” value (Rattus norvegicus [46]) was 1.71 m equiv and the V (Rattus norvegicus [47]) was 9.5 mL. For the same compound, the V (Rattus norvegicus [48]) was 17.4 mL, the “Excretion K+” value (Rattus norvegicus [49]) was 0.29 m equiv and the Ratio (Rattus norvegicus [50]) was 4.4. It also gave a Ratio (Rattus norvegicus [51]) of 6.1, a Ratio (Rattus norvegicus [52]) of 6.5 and a Ratio (Rattus norvegicus [53]) of 4.8. The “Excretion K+” value (Rattus norvegicus [54]) was 0.33 m equiv.

Source: ChEMBL document CHEMBL1127385, “Synthesis and diuretic activity of alkyl- and arylguanidine analogs of N,N'-dicyclohexyl-4-morpholinecarboxamidine in rats and dogs” (J Med Chem, 1994)
